Assay results reported in PMC11272978, “Exploring the central region of amylin and its analogs aggregation: the influence of metal ions and residue substitutions” (Frontiers in Chemistry, 2024).
Entries after “also recorded” stand apart in the source; their conditions may differ. No end group written: not given here.

Experiments:
[1] = Atomic force microscopy (AFM) of fibrils; assay type: physicochemical
Experimental: AFM imaging was conducted in a 256-scanning line at a 1 Hz scanning rate by using Bruker’s Nano Dimension Icon (Bruker Nano Inc., Germany). In this procedure, 200–300 μM hIAPP-F and Pramlintide-M were incubated with and without selected metal ions at 25°C for 24 h. All the samples were dissolved in 50 mM phosphate buffer (pH 7.4). The height of peptide aggregates was obtained from its section tool through Nano Scope Analysis 1.5, and the line position with average effects in the images was selected, except peptides alone in fibril form.

HeLa cells = experiment: CCK-8 cytotoxicity assay; assay type: cell-based, human
Experimental: The cytotoxicity of the different peptides (rIAPP-F, hIAPP-F, Pramlintide-F, hIAPP-M, rIAPP-M, Pramlintide-M, and hIAPP) was tested using CCK-8 assay according to the manufacturer’s protocol. Briefly, cervical carcinoma cells (HeLa) were seeded into 96 well plates 8 × 10^3 cells/well in 100 µL DMEM culture medium with 10% FBS and 1% Penicillin-Streptomycin and incubated in a 5% CO2 incubator at 37°C overnight. After that, the cells were incubated with the different peptides prepared in deionized water at concentrations (200, 400, 600, and 800 μg/mL) for 24 h. In addition, the cytotoxicity of hIAPP-F and Pramlintide-M prepared in 0.5 mg/mL Cu(NO3)2 and ZnCl2 solutions at the same concentrations (200, 400, 600, and 800 μg/mL) was also tested. Cells without any treatment were used as a control, and all the conditions were done in triplicates. After 24 h, the media was discarded from the plate, and cells were washed with PBS. Then, 10 µL of CCK-8 and 90 µL of fresh DMEM media were added to each well and incubated for 4 h. The absorbance was measured at OD = […] using a microplate spectrophotometer (BioRad-xMark Microplate Absorbance Spectrophotometer). The ratio of the absorbance at 570/605 was calculated, and the average absorbance value of wells without cells was considered as blank and subtracted from all wells to cancel the background noise. The cells without any treatment were used as a control, and their mean value was considered 100% viable. The other treated cells’ viability was calculated using the formula: Cells viability % = (Corrected Mean Absorbance of treated cells)/(Corrected Mean Absorbance of control) ×100.

[2] = Thioflavin-T (ThT) aggregation assay; assay type: physicochemical; conditions: 40 μM peptide, 20 μM ThT, 50 mM phosphate buffer pH 7.4, 25°C; for ThT fluorescence intensity (aggregation), peptide alone: ex 485/20, em 528/20 nm, read each 5 min; for ThT fluorescence intensity (aggregation) with Cu(II): Cu(II) (Cu(NO3)2) 1:1; for ThT fluorescence intensity (aggregation) with Zn(II): Zn(II) (ZnCl2) 1:1
Experimental: (§1) Preparation of IAPP fragments solutions and thioflavin-T aggregation assays were performed as described earlier ([Alghrably et al., 2020]). In brief, IAPP fragments were dissolved in 50 mM phosphate buffer to concentrations of 1 mM. Stock solutions were diluted to the desired concentrations, and samples were used fresh each time. It is important to mention that due to the observation of turbidity after dissolving hIAPP-F and Pramlintide-M, both peptides were sonicated for 25 min. All of the aggregation reactions were conducted at 25°C with 40 μM IAPP fragments/mutants (final concentration) in 50 mM phosphate buffer (pH 7.4), and 20 μM thioflavin T in a final volume of 200 μL in each of the 96-well flat-bottom black plate (Corning 3915). We tested the aggregation of each IAPP fragment/mutants alone and with the addition of two metal ions Cu(II) and Zn(II). The metal ions were added to the IAPP fragments in 1:1 ratio. The plate was sealed with transparent film (Duck Brand Crystal Clear Tape, Avon, OH). Thioflavin T fluorescence emission at 528/20 nm (excitation at 485/20) was monitored on a Cytation 5 Multi-Mode Microplate. The measurements were collected by top reading each 5 min after a 3 s shake with an extended gain.

[3] = 1D 1H NMR signal intensity over time (aggregation); assay type: physicochemical; conditions: 310 K, over 44 hours; for NMR signal intensity over time (signal loss = aggregation), peptide alone: D2O with 20 mM phosphate buffer pH 7.4, 1.5 mM peptide (100 μM for hIAPP-F and Pramlintide-M)
Experimental: All peptides (except hIAPP-F and Pramlintide-M) were dissolved in 99.8% deuterium oxide containing 20 mM of phosphate buffer (pH 7.4). All samples contained 1.5 mM peptide concentration in 600 μL of sample volume except for hIAPP-F and Pramlintide-M, for which the final concentration was 100 μM (both peptides have a high tendency to aggregate at room temperature). The samples’ pH was manually adjusted to 7.4 with 0.1 M NaOD stock solution in 100% D2O. These samples were used for the ^1H and ^13C resonances assignment based on 2D spectra: ^1H-^13C HSQC ([Bodenhausen and Ruben, 1980]) tuned for the aliphatic region, HSQC-TOCSY ([Koz´min´ski and Koz´min´ski, 1999]), ^1H-^1H TOCSY ([Braunschweiler and Ernst, 1983]) mixing time 20 ms and 80 ms, ^1H-^1H ROESY ([Davis, 1985]) mixing time 300 ms and 500 ms. During the hIAPP-F and Pramlintide-M sample preparation, a temperature of 90°C was used to dissolve the peptides. After that, both samples were sonicated during the cooling down process to obtain a homogeneous solution. Spectra were measured immediately after sample preparation. The samples with the addition of metal ions were prepared with the same method as the samples of high tendency aggregation peptides hIAPP-F and Pramlintide-M.
All experiments were performed at a temperature of 310 K. The NMR spectra were acquired on spectrometers of 950, 800, and 700 MHz Bruker Avance NEO equipped with cryogenic TCI probes: • rIAPP-F, hIAPP-F, Pramlintide-M: 700 MHz, ^1H frequency = 700.21 MHz, ^13C frequency = 176.07 MHz • rIAPP-M: 800 MHz, ^1H frequency = 800.18 MHz, ^13C frequency = 201.21 MHz • Pramlintide-F, hIAPP-M: 950 MHz, ^1H frequency = 950.30 MHz, ^13C frequency = 238.96 MHz

[4] = Turbidity on dissolving the peptide; assay type: physicochemical; conditions: dissolved in 50 mM phosphate buffer to 1 mM; observation; peptides then sonicated for 25 min
Experimental: as §1

[5] = 200 µM peptide alone, phosphate buffer pH 7.4, 25°C, 24 h, cross-section profile
[6] = 200 µM peptide, phosphate buffer pH 7.4, 25°C, 24 h
[7] = peptide:Cu(II) 1:1, 200 µM, phosphate buffer pH 7.4, 24 h

Compound | NMR signal intensity over time (signal loss = aggregation), peptide alone [3] | fibril morphology (AFM), peptide alone [1, 6] | ThT fluorescence intensity (aggregation), peptide alone [2] | ThT fluorescence intensity (aggregation) with Cu(II) [2] | ThT fluorescence intensity (aggregation) with Zn(II) [2] | also measured
CC[C@H](C)[C@H](NC(=O)[C@H](C)NC(=O)CNC(=O)[C@H](Cc1ccccc1)NC(=O)[C@H](CC(N)=O)NC(=O)[C@H](CC(N)=O)NC(=O)[C@H](CO)NC(=O)[C@H](CO)NC(=O)[C@H](Cc1c[nH]cn1)NC(=O)[C@@H](NC(=O)[C@H](CC(C)C)NC(=O)[C@H](Cc1ccccc1)NC(=O)[C@H](CC(N)=O)NC(=O)[C@H](C)NC(=O)[C@H](CC(C)C)NC(=O)[C@H](CCCNC(=N)N)NC(=O)[C@H](CCC(N)=O)NC(=O)[C@@H](NC(=O)[C@H](C)NC(=O)[C@@H]1CSSC[C@H](NC(=O)[C@@H](N)CCCCN)C(=O)N[C@@H](CC(N)=O)C(=O)N[C@@H]([C@@H](C)O)C(=O)N[C@@H](C)C(=O)N[C@@H]([C@@H](C)O)C(=O)N1)[C@@H](C)O)C(C)C)C(=O)N[C@@H](CC(C)C)C(=O)N[C@@H](CO)C(=O)N[C@@H](CO)C(=O)N[C@H](C(=O)N[C@@H](CC(N)=O)C(=O)N[C@H](C(=O)NCC(=O)N[C@@H](CO)C(=O)N[C@@H](CC(N)=O)C(=O)N[C@H](C(=O)N[C@@H](Cc1ccc(O)cc1)C(N)=O)[C@@H](C)O)C(C)C)[C@@H](C)O [hIAPP] | – | relatively short worm-like fibrils | – | – | – | diameter of helical fibrils (AFM) [1, 5]: 5–6 nm; diameter of ribbon fibrils (AFM) [1, 5]: around 2 nm; fibril length (AFM), some fibrils, peptide alone ([1]; 200 µM peptide alone, phosphate buffer pH 7.4, 24 h, fibrils vary in length): > 2 µm; average fibril length (AFM) with Cu(II) [1, 7]: less than 2 µm; fibril diameter (AFM) with Cu(II) [1, 7]: 2–3 nm; fibril morphology (AFM) with Cu(II) [1, 7]: unique looping structure; effect on cell viability, peptide alone (HeLa cells; HeLa cells, 200, 400, 600 and 800 μg/mL, 24 h, CCK-8, n = 3): highest level of toxicity; cell viability at 400 μg/mL (HeLa cells; HeLa cells, 24 h, CCK-8, peptide in deionized water, triplicates): 0%
SNNFGAILSS [hIAPP-F] | decreased over time | twisted fibril | – | completely inhibited the aggregation | increased the fluorescence intensity | time to reach saturation phase (ThT), peptide alone [2]: ~2.5 h; time to reach saturation phase (ThT) with Zn(II) ([2]; Zn(II) 1:1): ~2.5 h; fibril diameter (AFM), peptide alone ([1]; 200 µM peptide, phosphate buffer pH 7.4, 25°C, 24 h, profile analysis): approximately 6 nm; fibril diameter (AFM) with Zn(II) ([1]; peptide:Zn 1:1, 200 µM, phosphate buffer pH 7.4, 24 h): same diameter as the matured helical-structured fibrils; NMR signal intensity deterioration with Zn(II) ([3]; 100 μM peptide, pH 7.4, with Zn(II)): occurred faster in the presence of Zn(II); cell viability at 800 μg/mL (HeLa cells; HeLa cells, 24 h, CCK-8, peptide in deionized water, highest concentration tested, triplicates): 60%; cell viability, peptide-Cu(II) complex (HeLa cells; HeLa cells, peptide 200-800 μg/mL prepared in 0.5 mg/mL Cu(NO3)2, 24 h, CCK-8, n = 3): high cell viability; cell viability / proliferation, peptide with Zn(II) (HeLa cells; HeLa cells, peptide 200-800 μg/mL prepared in 0.5 mg/mL ZnCl2, 24 h, CCK-8, n = 3): high cell proliferation rate; turbidity after dissolving [4]: turbidity
SNNFGPILPP [Pramlintide-F, fragment derived from pramlintide, central region] | no signal loss was observed over time | – | no increase in fluorescence intensity; also recorded: did not show any increase in the fluorescence intensity | neither metal ions Cu(II) nor Zn(II) have any influence on the aggregation rate | neither metal ions Cu(II) nor Zn(II) have any influence on the aggregation rate | –

Now from value to compound, other results behind:

NMR signal intensity over time (signal loss = aggregation), peptide alone [3] | Compound | fibril morphology (AFM), peptide alone [1, 6] | ThT fluorescence intensity (aggregation), peptide alone [2] | ThT fluorescence intensity (aggregation) with Cu(II) [2] | ThT fluorescence intensity (aggregation) with Zn(II) [2] | also measured
no signal loss was observed over time | SNNFGAILPP [hIAPP-M, custom-designed mutated fragment of human amylin, last two serins mutated with prolines] | – | no increase in fluorescence intensity; also recorded: did not show any increase in the fluorescence intensity | neither metal ions Cu(II) nor Zn(II) have any influence on the aggregation rate | neither metal ions Cu(II) nor Zn(II) have any influence on the aggregation rate | –
no signal loss was observed over time | SNNLGPILPP [rIAPP-M, custom-designed mutated fragment of rat amylin] | – | no increase in fluorescence intensity; also recorded: did not show any increase in the fluorescence intensity | neither metal ions Cu(II) nor Zn(II) have any influence on the aggregation rate | neither metal ions Cu(II) nor Zn(II) have any influence on the aggregation rate | –
no signal loss was observed over time | SNNLGPVLPP [rIAPP-F, fragment derived from rat amylin, central region] | – | did not show any increase in the fluorescence intensity | neither metal ions Cu(II) nor Zn(II) have any influence on the aggregation rate | neither metal ions Cu(II) nor Zn(II) have any influence on the aggregation rate | –
